Assay results: patent US20230102247A1, “METHODS AND COMPOSITIONS RELATING TO IONIC LIQUID ADJUVANTS” (PRESIDENT AND FELLOWS OF HARVARD COLLEGE, priority 2020, published 2023)
Counter-ions that a name gives are not always drawn. Like-named read-outs stand apart in the source and are kept apart here.

Tests used:
[1] = cited from earlier work
OVA [2] = biological target: T1, OVA (Gallus gallus, UniProt P01012); settings: 10% w/v CoLa in saline, compared to alum
Experimental: For the CoLa adjuvant formulation, 10% w/v CoLa was added unless specified. Adsorbed OVA was quantified using a plate reader (Spectramax i3™)

OVA [3] = biological target: T1, OVA
Experimental: OVA containing solutions (0.5 mg mL-1) and complete medium (DMEM+10% FBS) were mixed to a total volume of 500 μL and incubated at 37° C. on a tube revolver. At regular time points, the suspensions were centrifuged at 12 000×g for 15 min and the supernatant was collected for analysis. The pellet was further resuspended in 400 μL fresh release media and incubated until the next time point.

immune response to OVA = system: immune response to OVA
Experimental: (§1) Female Balb/C mice (6-8-week-old) were purchased from Charles River Laboratories. All experiments were performed according to the approved protocols by the Institutional Animal Care and Use Committee (IACUC) of the Faculty of Arts and Sciences (FAS), Harvard University, Cambridge.
Balb/c mice were subcutaneously injected in the back with 50 μL of OVA-saline, OVA-CoLa or alum (n=8 for all groups). A total of three injections were given on day 0, day 7 and day 14. On day 19, the mice were euthanized, blood and spleen were collected for further analysis.
Blood was centrifuged at 5000 rpm for 10 minutes at 4° C. to separate the serum from the cells. Anti-OVA IgG titer was measured as previously described^13.

[4] = system: infiltrating immune cells at the injection site; settings: subcutaneous, 24 h
Experimental: as §1
Balb/c mice were subcutaneously injected in the back with 50 μL of saline, CoLa or alum (n=4 for all groups). […] Undigested tissue was removed by 70 μm mesh filtration. The suspension was centrifuged at 400×g for 10 min. The supernatant was removed via pipetting and 2 mL ACK lysing buffer (Thermo Fisher) was added to the pellet. After 5 min the suspensions were centrifuged again and resuspended with 2 mL FCS blocking buffer.

OVA [5] = biological target: T1, OVA; remark: listed apart in the source
Experimental: An SDS-PAGE assay was carried out to assess OVA aggregation from the OVA-CoLa or alum samples. 1 mg mL-1 OVA in 10% v/v CoLa or 2% alum were incubated for 1 h at room temperature (25° C.). OVA in saline was used as a negative control. […] Before electrophoresis, all samples were centrifuged at 5000×g for 5 min to discard any undissolved residue and the clear supernatants were adjusted to equivalent protein concentration. […] The protein bands were stained with Bio-Safe Coomassie stain (BioRad) for observation according to the manufacturer's protocol. Circular dichroism spectrophotometry (Jasco J-1500, Easton) was performed in the far-UV region (190-250 nm) to collect spectra. The three OVA (0.5 mg mL-1) containing formulations were centrifuged for 10 min at 10,000×g. The supernatant was removed via pipetting, while the soft OVA pellet at the bottom of the tube was not disturbed. The pellet was washed with 1 mL PBS and centrifuged again to remove the supernatant. The washing/centrifugation steps were repeated until no OVA pellet was formed during centrifugation. Rectangular quartz cells with a 1 mm path length (1-Q-1) were loaded with 400 μL of a sample. As a control spectrum, OVA in PBS was used. Each spectrum was the average of three scans.

T1 sequence (P01012 whole entry): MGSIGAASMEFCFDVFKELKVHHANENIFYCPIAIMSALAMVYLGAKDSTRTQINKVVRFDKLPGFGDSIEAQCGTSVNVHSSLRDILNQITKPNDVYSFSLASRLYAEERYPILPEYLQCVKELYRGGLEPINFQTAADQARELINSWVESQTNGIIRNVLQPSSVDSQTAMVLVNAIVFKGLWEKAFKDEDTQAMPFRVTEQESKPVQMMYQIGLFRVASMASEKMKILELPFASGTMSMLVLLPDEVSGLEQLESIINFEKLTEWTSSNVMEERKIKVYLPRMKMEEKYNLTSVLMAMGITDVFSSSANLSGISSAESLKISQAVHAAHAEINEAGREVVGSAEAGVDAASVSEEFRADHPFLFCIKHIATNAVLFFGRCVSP

CCCCC(CC)COS(=O)(=O)O (stereo not drawn) [2-Ethylhexyl sulfate]
LogP [1]: 3.10

CC(C)=CC(=O)O [3,3-dimethylacrylic acid]
LogP [1]: 1.2

O=S(=O)(O)c1ccc(O)cc1 [4-hydroxybenzenesulfonic acid]
LogP ([1]; exemplary anions): 0.2

O=C(O)c1cccc(-c2ccccc2)c1 [Biphenyl-3-carboxylic acid]
LogP ([1]; exemplary anions): 3.5

CC(O)C(=O)O.CC(O)C(=O)[O-].C[N+](C)(C)CCO [CoLa, Choline lactate (1:2)]
OVA adsorption on adjuvant (OVA [2]): lower adsorption | time over which adsorbed OVA was released (OVA [3]; 10% w/v CoLa in saline, DMEM+10% FBS, 37° C.): 24 h | release of adsorbed OVA (OVA [3]; compared to alum): faster release | Th2 response, as assessed by anti-OVA IgG (immune response to OVA; compared to alum): non-significant Th2 response | Th1 response (immune response to OVA; injections day 0, 7, 14, analysis day 19): strong Th1 response | activated dendritic cells (CD80) (immune response to OVA; spleen, CoLa versus alum): significantly higher | increase in IFN-γ+CD4 cells (immune response to OVA; spleen, compared to alum): ~3 fold | increase in the number of CD4 cells (immune response to OVA; spleen, compared to both the other groups): 50% | increase in the CD8 cells (immune response to OVA; spleen, compared to the controls): 5 fold | increase in natural killer (NK) cells (immune response to OVA; spleen, compared to the saline group): ~1.8 fold | infiltrating CD8 cells [4]: no such effect | CD86 (activation marker) on infiltrating dendritic cells ([4]; compared to the controls): significant increase | increase in infiltration of CD4 cells ([4]; compared to the controls): ~25% | higher infiltration of dendritic cells ([4]; compared to untreated and alum-treated mice): 20% | secondary structure of OVA (CD analysis) (OVA [5]): preserved | molecular integrity of adsorbed OVA (SDS-PAGE) (OVA [5]; similar to alum and saline): maintained the molecular integrity

O=C(O)[C@H](O)[C@@H](O)[C@H](O)[C@H](O)CO [Gluconic acid]
LogP ([1]; exemplary anions): −3.4

O=C(O)CO [Glycolic acid]
LogP ([1]; exemplary anions): −1.11

O=C(O)CCc1ccccc1 [Hydrocinnamic acid]
LogP ([1]; exemplary anions): 1.84

CC(C)C(=O)O [Isoburtyric acid]
LogP ([1]; exemplary anions): 0.94

O=C(O)/C=C\C(=O)O [Maleic acid]
LogP ([1]; exemplary anions): −0.48

O=P(O)(O)Oc1ccccc1 [Phenylphosphoric acid]
LogP ([1]; exemplary anions): 1.05

CCC(=O)O [Propanoic acid]
LogP ([1]; exemplary anions): 0.33
